Data: patent US7642051B2, “Screening methods for the identification of inhibitors of human immunodeficiency virus (HIV) viral protein R (Vpr) binding to the adenine nucleotide translocator (ANT)” (priority 2000, dated 2010)
Entries after “also recorded” stand apart in the source; their conditions may differ. Like-named read-outs stand apart in the source and are kept apart here. Where no end group is shown, it is not given here.

How the values were obtained:
Vpr52-96-ANT interaction = molecular target: T1, Vpr52-96-ANT interaction (Rattus norvegicus, UniProt Q05962); assay type: binding; settings: BA 250 μM, Atr 50 μM, peptides 5 μM
T1 construct: from tissue; host or cells: rat heart (ANT)
T1 sequence (Q05962 2-298 limits assumed): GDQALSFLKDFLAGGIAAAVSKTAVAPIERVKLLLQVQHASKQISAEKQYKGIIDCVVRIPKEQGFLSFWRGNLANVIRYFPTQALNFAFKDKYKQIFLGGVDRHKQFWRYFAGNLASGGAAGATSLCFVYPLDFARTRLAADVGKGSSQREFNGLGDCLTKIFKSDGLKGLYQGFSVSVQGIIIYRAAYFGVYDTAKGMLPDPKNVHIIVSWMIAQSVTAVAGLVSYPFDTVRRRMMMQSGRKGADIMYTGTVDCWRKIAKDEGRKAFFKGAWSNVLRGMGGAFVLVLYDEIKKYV

ANT-proteoliposomes = molecular target: T2, ANT-proteoliposomes (Rattus norvegicus, UniProt Q05962); assay type: binding
T2 construct: ANT is purified from rat heart and reconstituted in liposomes; from tissue; host or cells: rat heart
T2 sequence (Q05962 1-298): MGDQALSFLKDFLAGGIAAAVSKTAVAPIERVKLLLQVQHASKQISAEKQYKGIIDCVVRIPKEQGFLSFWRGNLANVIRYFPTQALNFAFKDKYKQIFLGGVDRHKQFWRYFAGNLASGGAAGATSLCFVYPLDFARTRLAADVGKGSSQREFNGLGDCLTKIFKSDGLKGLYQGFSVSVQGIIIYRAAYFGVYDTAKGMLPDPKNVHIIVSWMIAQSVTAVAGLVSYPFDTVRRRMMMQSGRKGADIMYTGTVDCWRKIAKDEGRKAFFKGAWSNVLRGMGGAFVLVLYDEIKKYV
Experimental: 1. Purification of ANT. ANT is purified from rat heart and reconstituted in liposomes according to the protocol described by Brenner et al., Oncogene, 2000.
2. Reconstitution of ANT in liposomes. ANT (0.03 mg/ml) is incorporated in liposomes composed of phosphatidylcholine and cardiolipine (PC:CL; 45:1; W: w; and 300 ng ANT per mg of lipids) in the presence of 0.3% n-octyl-β-D-pyranoside for 2 min. at room temperature. […] Then, the detergent is eliminated by dialyzing, overnight, the liposomes against the buffer 10 mM HEPES, 125 mM sucrose, pH7.4 at 4° C. (e.g.: about 11 of buffer per 1 ml liposomes).

purified mitochondria [1] = assay: ΔΨm dissipation in purified mitochondria (JC-1 flow cytometry); assay type: biochemical; settings: for inhibition of Vpr-induced ΔΨm loss in purified mitochondria: 5 μM CsA, 50 μM BA, 0.8 μM Bcl-2, 2 μM PA10, Vpr52-96 3 μM, 5 min
Experimental: C. […] Purified mitochondria were treated with 1 μM Vpr52-96 subjected to cytofluorometric determination of the percentage of mitochondria having a low ΔΨm using the ΔΨm-sensitive fluorochrome JC-1. In parallel, cytochrome c was immunodetected in the supernatant of mitochondria.
Numbers indicate the percentage of JC-1^high and JC-1^low mitochondria among ˜10^4 events.
E. Quantitation of the frequency of JC-1^low mitochondria (X±SD, n=5) after incubation with different Vpr-derived peptides.

purified mitochondria [2] = assay: Binding of FITC-Vpr52-96 to purified mitochondria; settings: pre-incubation 10 min
Experimental: Mitochondria were left unstained (insert in Co.) or exposed to the ΔΨm-insensitive mitochondrial dye MitoTracker® Green (75 nM), alone (MTG) or with 0.5 μM of FITC-Vpr52-96; green fluorescence), in combination with the ΔΨm-sensitive mitochondrial dye MitoTracker® Red (CMXRos; red Fluorescence) followed by cytofluorometric two-color analysis. Numbers indicate the percentage of mitochondria in each quadrant.
(§1) Mitochondria were pre-incubated 10 min. with the indicated inhibitors and the percentage of FITC-Vpr52-96-labelled mitochondria is determined as in A. C. […] Mitochondria were incubated with the indicated inhibitors, and then exposed for 30 min at RT with 5 μM biotinylated Vpr52-96. Mitochondria were lysed either after incubation with biotinylated Vpr52-96 (upper panel) or lysed before (lower panel) with Tris/HCl as described in materials and methods. Biotinylated Vpr52-96 complexed with its mitochondrial ligands was retained on avidin-agarose and subjected to immunoblot detection of ANT.

isolated mitochondria = assay: Electron microscopy of isolated mitochondria (matrix swelling); assay type: biochemical; settings: for inhibition of Vpr-induced matrix swelling: Vpr52-96 3 μM, 0.8 μM Bcl-2 or 2 μM PA10
From the text: C. Ultrastructural effects of Vpr on isolated mitochondria.

ANT [3] = molecular target: T3, ANT (Rattus norvegicus, UniProt Q05962); assay type: biochemical
T3 construct: from tissue; host or cells: rat heart
T3 sequence (Q05962 whole entry, looked up): T2 sequence (Q05962 1-298)
Experimental: (§2) FIG. 3 presents electrophysiological properties of Vpr52-96 and ANT in planar lipid bilayers.
(§3) Single channel recordings were performed using the “Tip-Dip” technique. The recordings shown are representative for at least three independent determinations.
(§4) B. Statistical analysis of conductances obtained in A. Results were expressed as current distributions at different voltages. Conductances (γ; in picosiemens, pS) are calculated by division of current by voltage.

COS cells = assay: Vpr52-96-induced ΔΨm dissipation in intact microinjected cells; assay type: cell-based; settings: Bcl-2 10 μM, PA10 2 μM microinjected
From the text: A. Vpr52-96-induced ΔΨm dissipation induced in intact cells.

ANT [4] = settings: 5 μM biotinylated Vpr52-96, 30 min
Experimental: as §1

Vpr52-96 = Vpr52-96 (Human immunodeficiency virus type 1 group M subtype B, UniProt P69726)
ANT [5] = molecular target: T4, ANT (Rattus norvegicus, UniProt Q05962); assay type: binding; settings: X±SD, n=5; read-out: calculated KD of the interaction of ANT with Vpr52-96
T4 construct: from tissue; host or cells: rat heart
From the text: A. Plasma surface resonance sensorgrams of the interaction of ANT with Vpr52-96, Vpr52-96[R73A,80A] or an irrelevant control (Co).
B. Langmuir isotherm determined at different concentrations of ANT on sensorgrams corrected by subtraction of the blank (sensorgrams obtained with Vpr52-96[R73A,80A]).

ANT [6] = molecular target: T4, ANT; assay type: biochemical; remark: listed apart in the source
Experimental: as §2, §3, §4

purified mitochondria [7] = assay: Respirometry of purified mitochondria (respiratory control); assay type: biochemical; settings: 10 min after 1 μM peptide; control mitochondria 5.3
Experimental: A. Oxygen consumption curves after addition of the indicated agents. Trace a: control mitochondria (no pretreatment). Trace b: mitochondria pretreated for 10 min with 1 μM Vpr52-96. Numbers along the traces are nmol of 02 consumed min^−1 mg^−1 protein.
B. Respiratory control (RC) values calculated by dividing oxygen consumption in the presence of CCCP by that measured with oligomycin (determined as in A), 10 min after addition of 1 μM of Vpr-derived peptides (mean values of 3 determinations).

ANT [8] = molecular target: T4, ANT; settings: surface plasmon resonance, Jacotot et al. 2000; cited from earlier work
[9] = molecular target: T5, adenine nucleotide translocator (ANT), native purified, detergent-solubilized or reconstituted in liposomes / planar lipid bilayers (rat), Q05962; assay: cell-based or functional assay
T5 chain: T1 sequence (Q05962 2-298 limits assumed)

[10] = molecular target: T5, adenine nucleotide translocator (ANT), …; assay: flow cytometry of liposomes; FITC-Vpr52-96 on ANT-proteoliposomes
[11] = molecular target: biotin-Vpr52-96 (biotinylated C-terminal moiety of HIV-1 Vpr) (HIV-1), P12520; assay: surface plasmon resonance, Langmuir isotherm, peptide on biotinylated Vpr52-96

## CO[C@H](C/C=C\C=C\CC/C=C/C[C@H](C)/C=C/C(=C\C(=O)O)CC(=O)O)/C(C)=C\C=C(/C)C(=O)O [BA, bongkrekic acid, reference compound]
Vpr52-96-ANT interaction
  modulation of the Vpr52-96-ANT interaction by ANT ligands and peptides: reduces Vpr binding
ANT-proteoliposomes; BA 50 μM, Bcl-2 800 nM
  effect on Vpr52-96 binding to membrane-associated ANT (ANT proteoliposomes): inhibited
Purified mitochondria [1]
  inhibition of Vpr-induced ΔΨm loss in purified mitochondria: inhibited
Purified mitochondria [2]
  effect on binding of Vpr52-96 to purified mitochondria: partially reduced
Isolated mitochondria
  inhibition of Vpr-induced matrix swelling: inhibited

## Bcl-2: recombinant human Bcl-2 protein
ANT-proteoliposomes
  effect on Vpr52-96 binding to membrane-associated ANT (ANT proteoliposomes): reduced Vpr52-96 binding
ANT [3]
  effect on formation of Vpr52-96 induced channels in ANT-containing lipid bilayers: abolished the formation of Vpr52-96 induced channels
Purified mitochondria [1]
  inhibition of Vpr-induced ΔΨm loss in purified mitochondria: inhibited; also recorded: strongly reduced
COS cells
  prevention of Vpr effect on intact cells by microinjection: prevented
Purified mitochondria [2]
  effect on binding of Vpr52-96 to purified mitochondria: failed to impair the binding
ANT [4]
  effect on affinity purification of ANT with biotinylated Vpr52-96, intact mitochondria: reduced the Vpr52-96-mediated recovery of ANT
Isolated mitochondria
  inhibition of Vpr-induced matrix swelling: inhibited; also recorded: strongly reduced
Vpr52-96
  binding of Bcl-2 to Vpr52-96: did not bind Vpr52-96

## CC[C@H](C)[C@H](NC(=O)[C@H](C)NC(=O)[C@H](CCC(=O)O)NC(=O)[C@@H](NC(=O)CNC(=O)[C@H](C)NC(=O)[C@H](Cc1c[nH]c2ccccc12)NC(=O)[C@@H](NC(=O)[C@@H](N)CC(=O)O)[C@@H](C)O)C(C)C)C(=O)N[C@H](C(=O)N[C@@H](CCCNC(=N)N)C(=O)N[C@H](C(=O)N[C@@H](CC(C)C)C(=O)N[C@@H](CCC(N)=O)C(=O)N[C@@H](CCC(N)=O)C(=O)N[C@@H](CC(C)C)C(=O)N[C@@H](CC(C)C)C(=O)N[C@@H](Cc1ccccc1)C(=O)N[C@H](C(=O)N[C@@H](Cc1c[nH]cn1)C(=O)N[C@@H](Cc1ccccc1)C(=O)N[C@@H](CCCNC(=N)N)C(=O)N[C@H](C(=O)NCC(=O)N[C@@H](CS)C(=O)N[C@@H](CCCNC(=N)N)C(=O)N[C@@H](Cc1c[nH]cn1)C(=O)N[C@@H](CO)C(=O)N[C@@H](CCCNC(=N)N)C(=O)N[C@H](C(=O)NCC(=O)N[C@H](C(=O)N[C@H](C(=O)N[C@@H](CCCNC(=N)N)C(=O)N[C@@H](CCC(N)=O)C(=O)N[C@@H](CCCNC(=N)N)C(=O)N[C@@H](CCCNC(=N)N)C(=O)N[C@@H](C)C(=O)N[C@@H](CCCNC(=N)N)C(=O)N[C@@H](CC(N)=O)C(=O)NCC(=O)N[C@@H](C)C(=O)N[C@@H](CO)C(=O)N[C@@H](CCCNC(=N)N)C(=O)N[C@@H](CO)C(=O)O)[C@@H](C)O)C(C)C)[C@@H](C)CC)[C@@H](C)CC)[C@@H](C)CC)[C@@H](C)CC)[C@@H](C)CC [Vpr52-96]
ANT [5]
  Kd: 9.7 ± 6.4 nM
ANT-proteoliposomes
  Vpr52-96 binding to ANT liposomes compared to protein-free liposomes: greatly facilitated
ANT [6]; as printed in Example 4
  conductance of Vpr52-96-ANT channels without any further addition: 190±2
ANT [6]; low doses (<1 nM), no ANT
  channel formation in planar lipid bilayers without ANT: incapable of forming channels
Purified mitochondria [7]
  respiratory control (RC) value: 1.1
Purified mitochondria [1]; Vpr52-96 1 μM
  timing of ΔΨm loss relative to cytochrome c release: well before cytochrome c release can be detected
Isolated mitochondria; 3 μM, 5 or 15 min
  ultrastructural effect on mitochondria: matrix swelling before OM rupture became apparent
ANT [8]
  affinity of Vpr C-terminus for purified ANT: high affinity in the nanomolar range

## C=C1[C@@H]2CC[C@H]3[C@]4(C)C[C@H](O[C@@H]5O[C@H](CO)[C@@H](OS(=O)(=O)O)[C@H](OS(=O)(=O)O)[C@H]5OC(=O)CC(C)C)C[C@@H](C(=O)O)[C@H]4CC[C@]3(C2)[C@H]1O [Atr, atractyloside]
Vpr52-96-ANT interaction
  modulation of the Vpr52-96-ANT interaction by ANT ligands and peptides: favors Vpr binding

## DTWAGVEAIIRILQQLLFIHFRIGCRHSRIGVTRQRRARNGASRS (modifications not checked) [Vpr52-96, P12520 52-96]
[9]
  conductance of Vpr52-96-ANT channels in the presence of Bax: 245
  conductance of channels in planar lipid bilayers: 190 pS

## DTWAGVEAIIRILQQLLFIHFRIGCRHSRIGVTRQRRARNGASRS (not fully specified) [FITC-labeled Vpr52-96, P12520 52-96]
[10]
  EC50 (read off the curve): 900 nM

## DKRTQFWRYFAGN (modifications not checked) [ANT-2-derived peptide ANT104-116]
[11]
  Kd: 35000 nM
